Laboratory results taken from patent publication US20260132129A1 (Genesis Therapeutics, Inc., priority 2022, published 2026).

Target: T1, PI3Kα H1047R (T47D cells) (Homo sapiens, UniProt P42336, H1047R)
T1 construct: endogenous in cells; host or cells: T47D cells
Experiment: PI3Kα cellular assay: pAKT HTRF in T47D cells after EGF stimulation
Assay type: cell-based
Conditions: for IC50: T47D cells (PI3Kα H1047R), pAKT S473 HTRF
Summary of the method: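 pAKT read by HTRF in lysates of EGF-stimulated (20 ng/mL, 10 min) T47D H1047R cells. Before stimulation, serum-starved cells (16 h) received compound for 1 h at 37 °C, dosed from 10,000 nM down to 0.5 nM in 3-fold steps.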

[1] = selectivity of T47D (H1047R) over SKBR3 (WT) pAKT IC50
[2] = selectivity T47D (H1047R) over SKBR3 (WT), pAKT HTRF
[3] = 1 hr compound, 20 ng/ml EGF 10 min

T1 sequence (P42336 whole entry H1047R): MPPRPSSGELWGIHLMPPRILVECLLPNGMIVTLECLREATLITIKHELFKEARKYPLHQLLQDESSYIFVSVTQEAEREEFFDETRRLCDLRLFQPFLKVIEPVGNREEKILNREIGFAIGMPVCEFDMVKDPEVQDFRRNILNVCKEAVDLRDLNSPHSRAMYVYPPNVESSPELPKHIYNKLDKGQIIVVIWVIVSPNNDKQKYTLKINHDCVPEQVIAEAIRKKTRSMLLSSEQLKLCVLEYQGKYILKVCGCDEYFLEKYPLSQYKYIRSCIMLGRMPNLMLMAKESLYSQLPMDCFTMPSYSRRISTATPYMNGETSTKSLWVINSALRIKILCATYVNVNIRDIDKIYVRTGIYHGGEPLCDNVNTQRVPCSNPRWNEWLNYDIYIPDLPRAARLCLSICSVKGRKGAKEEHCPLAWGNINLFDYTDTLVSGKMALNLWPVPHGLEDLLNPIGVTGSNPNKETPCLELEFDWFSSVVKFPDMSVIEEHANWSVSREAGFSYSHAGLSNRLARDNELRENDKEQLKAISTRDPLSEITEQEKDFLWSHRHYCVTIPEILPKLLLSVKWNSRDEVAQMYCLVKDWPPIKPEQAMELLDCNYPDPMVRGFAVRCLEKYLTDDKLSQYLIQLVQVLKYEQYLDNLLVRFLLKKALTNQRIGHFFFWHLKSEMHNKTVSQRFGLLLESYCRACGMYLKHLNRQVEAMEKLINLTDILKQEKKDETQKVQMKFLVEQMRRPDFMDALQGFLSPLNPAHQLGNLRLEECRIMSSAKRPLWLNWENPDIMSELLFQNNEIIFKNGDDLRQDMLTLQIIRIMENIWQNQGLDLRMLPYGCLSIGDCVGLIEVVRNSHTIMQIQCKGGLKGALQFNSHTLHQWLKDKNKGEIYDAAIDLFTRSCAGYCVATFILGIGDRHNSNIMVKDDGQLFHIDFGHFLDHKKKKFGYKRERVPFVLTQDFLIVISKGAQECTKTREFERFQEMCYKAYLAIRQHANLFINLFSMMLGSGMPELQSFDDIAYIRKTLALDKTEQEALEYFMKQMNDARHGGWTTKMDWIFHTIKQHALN
T1 sequence (P27986 whole entry partner): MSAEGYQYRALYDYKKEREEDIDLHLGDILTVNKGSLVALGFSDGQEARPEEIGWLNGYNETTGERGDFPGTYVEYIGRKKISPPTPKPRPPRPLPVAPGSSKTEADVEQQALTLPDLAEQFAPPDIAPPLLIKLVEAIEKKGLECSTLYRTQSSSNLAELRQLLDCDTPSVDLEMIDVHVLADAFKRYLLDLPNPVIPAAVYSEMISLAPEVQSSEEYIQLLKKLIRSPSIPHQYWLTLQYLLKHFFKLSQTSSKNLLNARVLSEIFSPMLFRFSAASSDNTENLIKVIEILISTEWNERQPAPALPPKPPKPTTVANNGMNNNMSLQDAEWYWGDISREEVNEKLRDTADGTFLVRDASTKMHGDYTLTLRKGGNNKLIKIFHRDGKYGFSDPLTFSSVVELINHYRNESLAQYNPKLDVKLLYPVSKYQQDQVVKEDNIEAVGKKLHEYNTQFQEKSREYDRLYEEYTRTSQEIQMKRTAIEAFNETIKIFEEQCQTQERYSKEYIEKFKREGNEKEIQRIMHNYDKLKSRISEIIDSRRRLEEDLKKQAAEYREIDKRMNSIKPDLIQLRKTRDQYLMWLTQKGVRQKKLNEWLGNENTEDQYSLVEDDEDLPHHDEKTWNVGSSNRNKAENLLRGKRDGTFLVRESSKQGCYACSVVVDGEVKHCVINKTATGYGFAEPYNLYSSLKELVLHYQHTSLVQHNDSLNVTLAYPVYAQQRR

SMILES	T47D pAKT S473 HTRF IC50 (H1047R): T47D (H1047R) selectivity over SKBR3 (WT) [1]	IC50 (EGF stimulation) [µM]	T47D pAKT S473 HTRF IC50 (H1047R): T47D (H1047R) selectivity over SKBR3 (WT) [2]	IC50 [3] [µM]
Cc1cc([C@@H](C)Nc2ccccc2C(=O)O)c2nc(C3Cc4ccccc4[C@@H]3C)cc(=O)n2c1 (single isomer, unassigned) [Compound 652]	A (A denotes >20-fold)	–	–	–
Cc1cc([C@H](C)Nc2ccccc2C(=O)O)c2nc(N3C[C@H]4C[C@@H](C5CCN(S(=O)(=O)N(C)C)CC5)C[C@H]4C3)cc(=O)n2c1 [Compound 935]	C (C denotes ≤5-fold)	–	–	–
Cc1cc([C@@H](C)Nc2ccccc2C(=O)O)c2nc(-c3ccnc(C)n3)c(C)c(=O)n2c1 [Compound 1198]	–	> 2	C (C denotes ≤5-fold)	–
Cc1cc([C@H](C)Nc2cccc3[nH]c(=O)oc23)c2nc(N3CCOCC3)cc(=O)n2c1 [Compound 566]	–	–	C (C denotes ≤5-fold)	> 2
Cc1cc(C(C)Nc2ccccc2C(=O)O)c2nc(N3C[C@H]4C[C@@H](C5CCN(S(=O)(=O)N(C)C)CC5)C[C@H]4C3)cc(=O)n2c1 (stereo partly shown) [Compound 844]	B (B denotes 20-fold≥value>5-fold)	0.5 to 2	–	–
Cc1cc([C@H](C)Nc2ccccc2C(=O)O)c2nc([C@@H]3CCCOC3)c(C)c(=O)n2c1 [Compound 1281]	–	0.5 to 2	B (B denotes 20-fold≥value>5-fold)	–
Cc1cc([C@@H](C)Nc2ccccc2CC(=O)O)c2nc(N3CCOCC3)cc(=O)n2c1 [Compound 157]	–	–	C (C denotes ≤5-fold)	> 2
Cc1cc([C@H](C)Nc2ccccc2C(=O)O)c2nc(-c3ccc4c(c3)c(N)nn4C)cc(=O)n2c1 [Compound 786]	C (C denotes ≤5-fold)	> 2	–	–
Cc1cc(C(C)Nc2ccccc2-c2ccnnc2)c2nc(-c3cccnc3)c(C)c(=O)n2c1 (stereo not shown) [Compound 1143]	–	0.1 to 0.5	A (A denotes >20-fold)	–
Cc1cc(C(C)Nc2ccccc2C(=O)O)c2nc(-c3ccc(C(=O)N(C)C)cc3)cc(=O)n2c1 (stereo not shown) [Compound 657]	B (B denotes 20-fold≥value>5-fold)	–	–	–
Cc1cc([C@H](C)Nc2ccccc2C(=O)O)c2nc(-c3ccc4c(c3)c(C)cn4C3CCOCC3)c(C)c(=O)n2c1 [Compound 1009]	C (C denotes ≤5-fold)	–	–	–
Cc1cc([C@H](C)Nc2ccccc2C(=O)O)c2nc(-c3ccc4c(c3)c(C)nn4C)cc(=O)n2c1 [Compound 697]	C (C denotes ≤5-fold)	–	–	–
Cc1cc([C@@H](C)Nc2ccccc2C(=O)O)c2nc(-c3ccnc(C4CC4)c3)c(C)c(=O)n2c1 (single isomer, unassigned) [Compound 953]	A (A denotes >20-fold)	< 0.1	–	–
Cc1cc([C@@H](C)Nc2ccccc2C(=O)O)c2nc(-c3ccc(C(=O)N(C)C)cc3)cc(=O)n2c1 [Compound 658]	A (A denotes >20-fold)	0.1 to 0.5	–	–
Cc1cc(C(C)Nc2c(C(=O)O)cnn2C)c2nc(N3CCOCC3)cc(=O)n2c1 (stereo not shown) [Compound 379]	–	–	C (C denotes ≤5-fold)	> 2
Cc1cc(C(C)Nc2ccccc2C(=O)O)c2nc(Nc3ccc4[nH]c(=O)[nH]c4c3)cc(=O)n2c1 (stereo not shown) [Compound 505]	–	–	C (C denotes ≤5-fold)	> 2
Cc1cc([C@@H](C)Nc2ccccc2C(=O)O)c2nc(-c3ccc4c(c(N)nn4C)c3C)c(C)c(=O)n2c1 [Compound 787]	C (C denotes ≤5-fold)	> 2	–	–
Cc1cc([C@@H](C)Nc2ccccc2C(=O)O)c2nc(-c3ccc4nc(CO)[nH]c4c3)cc(=O)n2c1 [Compound 488]	–	–	C (C denotes ≤5-fold)	> 2
